Data taken from patent publication US20090264292A1, “HERBICIDAL COMPOSITION” (ISHIHARA SANGYO KAISHA, LTD., priority 2005, published 2009).

Legend:
Assay type in all cases: in vivo
[1] = system: velvetleaf (Abutilon theophrasti MEDIC.); experiment: Test Example 1: pot test, foliar application, velvetleaf; conditions: 2.8 leaf stage, 21st day after application, read-out: Velvetleaf Growth inhibition rate (%) Observed
Experimental: (§1) Upland field soil was put into a 1/1,000,000 ha pot, and seeds of various plants were sown. Then, when the plants reached the prescribed leaf stages ((1) 3.6 leaf stage of crabgrass (Digitaria sanguinalis L.), and (2), 2.8 leaf stage of velvetleaf (Abutilon theophrasti MEDIC.)), a prescribed amount of the herbicidal composition was diluted with water corresponding to 300 L/ha, and foliar application was carried out by means of a small size spray. On the 21st day after the application, the state of growth of each plant was visually observed, and the growth inhibition rate (%) evaluated in accordance with the following evaluation standard (observed value) and the growth inhibition rate (%) calculated by the above-mentioned Colby method (expected value) are shown in Tables 1 and 2 .
(§2) Growth inhibition rate (%)=0% (equivalent to the non-treated area) to 100% (complete kill)

[2] = system: crabgrass (Digitaria sanguinalis L.); experiment: Test Example 1: pot test, foliar application, crabgrass; conditions: 3.6 leaf stage, 21st day after application, read-out: Crabgrass Growth inhibition rate (%) Observed
Experimental: as §1, §2

[3] = system: velvetleaf (Abutilon theophrasti MEDIC.); experiment: Test Example 3: pot test, foliar application, velvetleaf; conditions: 2.3 to 2.5 leaf stage, 14th day after application, read-out: Velvetleaf Growth inhibition rate (%) Observed
Experimental: as §2
(§3) Upland field soil was put into a 1/1,000,000 ha pot, and seeds of velvetleaf (Abutilon theophrasti MEDIC.) were sown. Then, when velvetleaf reached 2.3 to 2.5 leaf stage, a prescribed amount of the herbicidal composition was diluted with water corresponding to 300 L/ha, and foliar application was carried out by means of a small size spray.
On the 14th day after the application, the state of growth of velvetleaf was visually observed and evaluated in the same manner as in the above Test Example 1.

[4] = system: velvetleaf (Abutilon theophrasti MEDIC.); experiment: Test Example 2: pot test, foliar application, velvetleaf; conditions: 2.9 leaf stage, 21st day after application, read-out: Velvetleaf Growth inhibition rate (%) Observed
Experimental: as §2
as §3, with “2.9” for “2.3 to 2.5”
On the 21st day after the application, the state of growth of velvetleaf was visually observed and evaluated in the same manner as in the above Test Example 1.

Compound: COc1cc(OC)nc(NC(=O)NS(=O)(=O)c2ncccc2C(=O)N(C)C)n1 [Compound A-1, 2-(4,6-dimethoxypyrimidin-2-ylcarbamoylsulfamoyl)-N,N-dimethylnicotinamide]
- inhibition at 50 g/ha ([1]; 50 g/ha): 60%
- inhibition at 25 g/ha ([2]; 25 g/ha): 53%
- inhibition at 5 g/ha ([3]; 5 g/ha): 5%
- inhibition at 10 g/ha ([3]; 10 g/ha): 8%
- inhibition at 15 g/ha ([3]; 15 g/ha): 12%
- inhibition at 25 g/ha ([4]; 25 g/ha): 38%

Compound: CCNc1nc(Cl)nc(NC(C)(C)C)n1 [Compound B-1, N^2-tert-butyl-6-chloro-N^4-ethyl-1,3,5-triazine-2,4-diamine]
- inhibition at 250 g/ha ([1]; 250 g/ha): 57%
- inhibition at 500 g/ha ([1]; 500 g/ha): 58%
- inhibition at 250 g/ha ([2]; 250 g/ha): 5%
- inhibition at 500 g/ha ([2]; 500 g/ha): 8%
- inhibition at 1000 g/ha ([3]; 1000 g/ha): 37%
- inhibition at 1500 g/ha ([3]; 1500 g/ha): 43%
- inhibition at 2000 g/ha ([3]; 2000 g/ha): 43%
- inhibition at 500 g/ha ([4]; 500 g/ha): 47%
